In test [1] the target is T1, CD59 (Homo sapiens, UniProt P13987).
T1 construct: Recombinant soluble human CD59 with an additional C-terminal cysteine residue
T1 sequence (P13987 26-102 limits assumed): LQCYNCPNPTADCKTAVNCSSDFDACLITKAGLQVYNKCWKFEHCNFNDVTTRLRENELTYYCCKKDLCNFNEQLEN
Put plainly: SPR (Biacore S200) binding to immobilised biotinylated CD59. The text has this: To identify which of these peptides bound CD59 most tightly, we used a Biacore S200 surface plasmon resonance (SPR) platform to investigate CD59 affinity (Figure 2b), using a known protein binding partner of CD59 (rILYd4) as a benchmark. Four 13‐mer macrocyclic peptides and one 14‐mer macrocyclic peptide were identified with a dissociation constant (K D) lower than that of rILYd4. Considering their fourfold lower molecular weight, these peptides bind with up to 19‐fold greater efficiency compared to rILYd4 (Figure 2b).
Equipment: SPR analysis was performed on a Cytiva Biacore S200. All buffers were prepared using ultra-pure water from a Millipore Elix Q-Gard purification system. Solutions and buffers were filtered with a 0.22 μm filter and degassed prior to use. The assays were performed on Series S streptavidin (SA) sensor chip (Cytiva). PBS-P+ buffer 10X (0.2 M phosphate buffer with 27 mM KCl, 1.37 M NaCl and 0.5% Surfactant P20 (Tween 20)) was used for the preparation of the assay running buffer (PBS-P+ 1X).
Immobilisation of CD59-biotin: Biotinylated CD59 was immobilised on the surface of a SA chip by non-covalent capture (biotin streptavidin interaction) as per the manufacturer’s instructions. The system was initially primed with running buffer and normalised using BIAnormalizing solution (70% (w/w) glycerol) (Cytiva). Before immobilising the protein, the surface was conditioned with three consecutive one-minute injections of 1 M NaCl in 50 mM NaOH. Biotinylated CD59 (0.5 µg/mL in running buffer) was flowed over the protein (active) channel for different contact times to achieve different immobilisation levels (600–1200 RU). After each protein injection, the needle and injection loop were washed using 50% isopropanol in 1 M NaCl and 50 mM NaOH. A reference channel was prepared by similar treatment; however, running buffer alone rather than CD59-biotin in running buffer was flowed over the chip the same way.
Interaction analysis: Multicycle kinetic and affinity approach was used for the analysis of peptides interactions with CD59. Two-fold serial dilutions of each peptide were prepared in running buffer and were flowed over both the ligand and reference channel using a flow rate (30 μL/min) at 25 °C. A zero concentration was added to each analyte series and three cycles of buffer were run between analytes to restore the baseline. The obtained sensorgrams were analysed using the embedded Biacore S200 Evaluation software. The data were normalised by subtracting RU values of the reference channel and zero concentration of the analyte series. Kinetic rate constants (kon and koff) were determined by fitting the normalised data using the built-in Kinetic analysis model (non-linear regression with a 1:1 Langmuir binding model), KD values were then calculated from the two rate constants ([…]). The KD values were determined again by fitting the normalised data using the built-in Affinity analysis model (1:1 Langmuir binding model).

For test [2], the target named is T2, biotinylated CD59 (Homo sapiens, UniProt P13987).
T2 construct: Recombinant soluble human CD59 with an additional C-terminal cysteine residue
T2 sequence (P13987 26-102 limits assumed): T1 sequence (P13987 26-102 limits assumed)
Put plainly: mRNA-display cyclic peptide screen against CD59-biotin, NGS abundance after 6th selection round. Put shortly:
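Peptide–mRNA fusions were made by in vitro translation with a customised PURE express kit. The kit lacked release factor 1 and methionine and was supplemented with […] initiator tRNA carrying N-chloroacetyl-d-tyrosine. Thioether macrocycles were formed, then enriched and amplified over iterative rounds on CD59-biotin immobilised on streptavidin beads. NGS read counts per sequence were recorded after the 6th selection round.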

Setting [3] is: Ala scan of CP-06, SPR, n = 1, read-out: KD.
Setting [4] is: SPR, immobilized CD59, average of three technical replicates ± SEM, read-out: KD (nM) ± SEM.

This note sets out measurements from PMC12207370, “Macrocyclic Peptide Probes for Immunomodulatory Protein CD59: Potent Modulators of Bacterial Toxin Activity and Antibody‐Dependent Cytotoxicity” (Angewandte Chemie (International Ed. in English), 2025).

Read-outs that look alike come from different tables or passages of the source. Peptide text beside a SMILES is read from it.

For `CC(C)[C@@H]1NC(=O)[C@H](CO)NC(=O)[C@H](C)NC(=O)[C@H](CCCNC(=N)N)NC(=O)[C@H](CC(N)=O)NC(=O)CNC(=O)[C@H](Cc2c[nH]c3ccccc23)NC(=O)[C@H]([C@@H](C)O)NC(=O)[C@H](Cc2c[nH]c3ccccc23)NC(=O)[C@H](CO)NC(=O)[C@@H](Cc2ccc(O)cc2)NC(=O)CSC[C@@H](C(N)=O)NC(=O)CNC(=O)[C@H](CCCNC(=N)N)NC1=O` [CP-06-S9A] (HELM PEPTIDE1{[O=C(C[*:3])[*:2]].[dY].S.W.T.W.G.N.R.A.S.V.R.G.C.[am]}$PEPTIDE1,PEPTIDE1,1:R3-15:R3$$$V2.0), the Kd in test [1] (setting [3]) worked out at 22 nM. The same measure, in the same setting: in the case of `CC(C)[C@@H]1NC(=O)[C@H](CO)NC(=O)[C@H](CO)NC(=O)[C@H](CCCNC(=N)N)NC(=O)[C@H](C)NC(=O)CNC(=O)[C@H](Cc2c[nH]c3ccccc23)NC(=O)[C@H]([C@@H](C)O)NC(=O)[C@H](Cc2c[nH]c3ccccc23)NC(=O)[C@H](CO)NC(=O)[C@@H](Cc2ccc(O)cc2)NC(=O)CSC[C@@H](C(N)=O)NC(=O)CNC(=O)[C@H](CCCNC(=N)N)NC1=O` [CP-06-N7A] (HELM PEPTIDE1{[O=C(C[*:3])[*:2]].[dY].S.W.T.W.G.A.R.S.S.V.R.G.C.[am]}$PEPTIDE1,PEPTIDE1,1:R3-15:R3$$$V2.0) it was 209 nM; in that of `CC(C)[C@@H]1NC(=O)[C@H](CO)NC(=O)[C@H](CO)NC(=O)[C@H](CCCNC(=N)N)NC(=O)[C@H](CC(N)=O)NC(=O)CNC(=O)[C@H](Cc2c[nH]c3ccccc23)NC(=O)[C@H]([C@@H](C)O)NC(=O)[C@H](Cc2c[nH]c3ccccc23)NC(=O)[C@H](CO)NC(=O)[C@@H](Cc2ccc(O)cc2)NC(=O)CSC[C@@H](C(N)=O)NC(=O)CNC(=O)[C@H](C)NC1=O` [CP-06-R12A] (HELM PEPTIDE1{[O=C(C[*:3])[*:2]].[dY].S.W.T.W.G.N.R.S.S.V.A.G.C.[am]}$PEPTIDE1,PEPTIDE1,1:R3-15:R3$$$V2.0), 97 nM. Take `CC(C)[C@@H]1NC(=O)[C@H](Cc2ccccc2)NC(=O)[C@@H](Cc2ccc(O)cc2)NC(=O)CSC[C@@H](C(N)=O)NC(=O)CNC(=O)[C@H](CCCNC(=N)N)NC(=O)[C@H]([C@@H](C)O)NC(=O)[C@H](Cc2c[nH]cn2)NC(=O)[C@H](CC(=O)O)NC(=O)[C@H](CCCNC(=N)N)NC(=O)[C@H](CC(N)=O)NC(=O)CNC(=O)[C@H]([C@@H](C)O)NC1=O` [CP-02] (HELM PEPTIDE1{[O=C(C[*:3])[*:2]].[dY].F.V.T.G.N.R.D.H.T.R.G.C.[am]}$PEPTIDE1,PEPTIDE1,1:R3-14:R3$$$V2.0): in test [1] (setting [4]), the Kd amounted to 15.3 ± 0.2 nM.

Consider `CC(C)[C@@H]1NC(=O)[C@H](CO)NC(=O)[C@H](CO)NC(=O)[C@H](CCCNC(=N)N)NC(=O)[C@H](CC(N)=O)NC(=O)CNC(=O)[C@H](Cc2c[nH]c3ccccc23)NC(=O)[C@H]([C@@H](C)O)NC(=O)[C@H](C)NC(=O)[C@H](CO)NC(=O)[C@@H](Cc2ccc(O)cc2)NC(=O)CSC[C@@H](C(N)=O)NC(=O)CNC(=O)[C@H](CCCNC(=N)N)NC1=O` [CP-06-W3A] (HELM PEPTIDE1{[O=C(C[*:3])[*:2]].[dY].S.A.T.W.G.N.R.S.S.V.R.G.C.[am]}$PEPTIDE1,PEPTIDE1,1:R3-15:R3$$$V2.0), for which, in test [1] (setting [3]), the Kd was determined as 1200 nM. For `C[C@@H]1NC(=O)[C@H](CO)NC(=O)[C@H](CO)NC(=O)[C@H](CCCNC(=N)N)NC(=O)[C@H](CC(N)=O)NC(=O)CNC(=O)[C@H](Cc2c[nH]c3ccccc23)NC(=O)[C@H]([C@@H](C)O)NC(=O)[C@H](Cc2c[nH]c3ccccc23)NC(=O)[C@H](CO)NC(=O)[C@@H](Cc2ccc(O)cc2)NC(=O)CSC[C@@H](C(N)=O)NC(=O)CNC(=O)[C@H](CCCNC(=N)N)NC1=O` [CP-06-V11A] (HELM PEPTIDE1{[O=C(C[*:3])[*:2]].[dY].S.W.T.W.G.N.R.S.S.A.R.G.C.[am]}$PEPTIDE1,PEPTIDE1,1:R3-15:R3$$$V2.0), the Kd in test [1] (Ala scan of CP-06, SPR, n = 1, read-out: PKD (converted)) is 30.2 nM. In the case of `CC(C)[C@@H]1NC(=O)[C@H](CO)NC(=O)[C@H](CO)NC(=O)[C@H](C)NC(=O)[C@H](CC(N)=O)NC(=O)CNC(=O)[C@H](Cc2c[nH]c3ccccc23)NC(=O)[C@H]([C@@H](C)O)NC(=O)[C@H](Cc2c[nH]c3ccccc23)NC(=O)[C@H](CO)NC(=O)[C@@H](Cc2ccc(O)cc2)NC(=O)CSC[C@@H](C(N)=O)NC(=O)CNC(=O)[C@H](CCCNC(=N)N)NC1=O` [CP-06-R8A] (HELM PEPTIDE1{[O=C(C[*:3])[*:2]].[dY].S.W.T.W.G.N.A.S.S.V.R.G.C.[am]}$PEPTIDE1,PEPTIDE1,1:R3-15:R3$$$V2.0), the Kd in test [1] (setting [3]) is 18 nM. In the case of `CC[C@H](C)[C@@H]1NC(=O)[C@H](CCC(N)=O)NC(=O)[C@H](CCCNC(=N)N)NC(=O)[C@H](CC(N)=O)NC(=O)CNC(=O)[C@H](Cc2c[nH]c3ccccc23)NC(=O)[C@H](C)NC(=O)[C@H](CO)NC(=O)[C@@H](Cc2ccc(O)cc2)NC(=O)CSC[C@@H](C(N)=O)NC(=O)[C@H](Cc2ccc(O)cc2)NC(=O)[C@H](Cc2ccc(O)cc2)NC(=O)[C@H](CCC(N)=O)NC1=O` [CP-03] (HELM PEPTIDE1{[O=C(C[*:3])[*:2]].[dY].S.A.W.G.N.R.Q.I.Q.Y.Y.C.[am]}$PEPTIDE1,PEPTIDE1,1:R3-14:R3$$$V2.0), the Kd in test [1] (setting [4]) amounted to 23.4 ± 0.7 nM. `CC(C)[C@@H]1NC(=O)[C@H](C)NC(=O)[C@H](CO)NC(=O)[C@H](CCCNC(=N)N)NC(=O)[C@H](CC(N)=O)NC(=O)CNC(=O)[C@H](Cc2c[nH]c3ccccc23)NC(=O)[C@H]([C@@H](C)O)NC(=O)[C@H](Cc2c[nH]c3ccccc23)NC(=O)[C@H](CO)NC(=O)[C@@H](Cc2ccc(O)cc2)NC(=O)CSC[C@@H](C(N)=O)NC(=O)CNC(=O)[C@H](CCCNC(=N)N)NC1=O` [CP-06-S10A] (HELM PEPTIDE1{[O=C(C[*:3])[*:2]].[dY].S.W.T.W.G.N.R.S.A.V.R.G.C.[am]}$PEPTIDE1,PEPTIDE1,1:R3-15:R3$$$V2.0): in test [1] (setting [3]), the Kd is 12 nM.

Turning to `CC(C)[C@@H]1NC(=O)[C@H](CO)NC(=O)[C@H](CO)NC(=O)[C@H](CCCNC(=N)N)NC(=O)[C@H](CC(N)=O)NC(=O)CNC(=O)[C@H](C)NC(=O)[C@H]([C@@H](C)O)NC(=O)[C@H](Cc2c[nH]c3ccccc23)NC(=O)[C@H](CO)NC(=O)[C@@H](Cc2ccc(O)cc2)NC(=O)CSC[C@@H](C(N)=O)NC(=O)CNC(=O)[C@H](CCCNC(=N)N)NC1=O` [CP-06-W5A] (HELM PEPTIDE1{[O=C(C[*:3])[*:2]].[dY].S.W.T.A.G.N.R.S.S.V.R.G.C.[am]}$PEPTIDE1,PEPTIDE1,1:R3-15:R3$$$V2.0), the Kd in test [1] (setting [3]) is 207 nM.

For the compound `CC(C)[C@@H]1NC(=O)[C@H](Cc2c[nH]cn2)NC(=O)[C@@H](Cc2ccc(O)cc2)NC(=O)CSC[C@@H](C(N)=O)NC(=O)CNC(=O)[C@H](CCCNC(=N)N)NC(=O)[C@H]([C@@H](C)O)NC(=O)[C@H](Cc2ccccc2)NC(=O)[C@H](CO)NC(=O)[C@H](CCCNC(=N)N)NC(=O)[C@H](CC(N)=O)NC(=O)CNC(=O)[C@H](Cc2ccccc2)NC1=O` [CP-04] (HELM PEPTIDE1{[O=C(C[*:3])[*:2]].[dY].H.V.F.G.N.R.S.F.T.R.G.C.[am]}$PEPTIDE1,PEPTIDE1,1:R3-14:R3$$$V2.0), the Kd in test [1] (setting [4]) was found to be 11.9 ± 0.3 nM. For CFSRRLTAGAI, the “Percentage Seq I” value in test [2] (counts normalised by total counts of sample Seq I, percentage of the pool, sheet R6) amounted to 2.075%. Also, in test [2] (counts normalised by total counts of sample Seq II, percentage of the pool, sheet R6), the “Percentage Seq II” value is 2.091%. Moreover, in test [2] (percentage of the pool averaged across the two sequencing samples, sheet R6), the “Percentage Average” value turned out to be 2.083%. In addition, the “Counts Seq I” value in test [2] (raw NGS counts of peptide sequence, sequencing sample Seq I, sheet R6 (6th selection round)) amounted to 9078. The “Counts Seq II” value in test [2] (raw NGS counts of peptide sequence, sequencing sample Seq II, sheet R6 (6th selection round)) is 901.
